Data: US20260242478A1, “ANTIBODIES FOR TARGETING PSMA AND CD28 AND USES THEREOF” (Janux Therapeutics, Inc., priority 2023, published 2026)

Experiments:
[1] = target: PSMA Fab (SEQ ID NOs: 19, 20) binding to the PSMA antigen; assay: Inhibition of PSMA Fab binding to PSMA by peptides, competition ELISA (incl. alanine scanning); design: key to Mutation Status: tolerant (T); somewhat tolerant (ST); intolerant (IT)
Method: PSMA Fab fixed at 0.3 nanomolar (nM) concentration was pre-incubated with 0-100 micromolar (μM) titrated peptides. After a short pre-incubation period, the mixture of titrated peptide with fixed PSMA Fab were added to the PSMA antigen coated plates. After a short incubation on the plates, bound PSMA Fab was detected with a standard horse radish peroxidase conjugated secondary antibody.
The tables also designate each alanine mutation as tolerant (T), somewhat tolerant (ST), or intolerant (IT) based on changes in binding inhibition ability relative to the non-mutated peptide. Cys-5 and Cys-11 of peptide-179 and peptide-180 were not mutated.

[2] = target: anti-CD28 Fab (SEQ ID NOs: 696, 697); assay: anti-CD28 Fab binding to peptides, ELISA; details: anti-CD28 Fab
[3] = target: anti-CD28 scFv (disulfide) (SEQ ID NO: 10); assay: anti-CD28 scFv (disulfide) binding to peptides, ELISA; details: Table 27
Method: Peptides were evaluated for their ability to bind to ant-CD28 Fab (SEQ ID NOs: 696.697) or anti-CD28 scFv (disulfide) (SEQ ID NO: 10) in a standard ELISA format as described above.

[4] = target: PSMA Fab (SEQ ID NOs: 19, 20); assay: PSMA Fab binding to peptides, ELISA; details: PSMA Fab binding to biotinylated peptide, ELISA
Method: Peptides of Table 9 were evaluated for their ability to bind to PSMA Fab in a standard enzyme linked immunosorbent assay (ELISA) format. […] PSMA Fab diluted in buffer was then added to the peptide captured plates. Bound antibody was detected using a standard horse radish peroxidase conjugate secondary antibody.

[5] = Table 39, PSMA Fab fixed at 0.3 nM, peptide 0-100 μM
[6] = Table 40, alanine scanning of Peptide-179, change in binding inhibition relative to non-mutated peptide
[7] = Table 40, competition binding ELISA, alanine scanning sequences of Peptide-179
[8] = Table 38, PSMA Fab fixed at 0.3 nM, peptide 0-100 μM
[9] = Table 41, alanine scanning of Peptide-180, change in binding inhibition relative to non-mutated peptide

anti-CD28 Fab (SEQ ID NOs: 696, 697), sequence (as listed by the source): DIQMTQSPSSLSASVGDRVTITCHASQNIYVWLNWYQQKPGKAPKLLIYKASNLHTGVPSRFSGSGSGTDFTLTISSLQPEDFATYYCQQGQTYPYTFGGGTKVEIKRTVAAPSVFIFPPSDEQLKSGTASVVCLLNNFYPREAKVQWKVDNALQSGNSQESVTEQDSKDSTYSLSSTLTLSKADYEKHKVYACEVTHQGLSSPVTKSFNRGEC
anti-CD28 Fab (SEQ ID NOs: 696, 697), sequence (as listed by the source): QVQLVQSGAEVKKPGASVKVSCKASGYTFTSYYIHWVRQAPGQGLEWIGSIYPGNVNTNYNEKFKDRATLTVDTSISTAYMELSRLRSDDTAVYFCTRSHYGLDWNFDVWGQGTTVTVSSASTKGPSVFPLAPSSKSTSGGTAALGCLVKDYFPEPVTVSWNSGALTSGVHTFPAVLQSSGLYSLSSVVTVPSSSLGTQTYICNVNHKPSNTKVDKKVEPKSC
PSMA Fab (SEQ ID NOs: 19, 20), sequence (as listed by the source): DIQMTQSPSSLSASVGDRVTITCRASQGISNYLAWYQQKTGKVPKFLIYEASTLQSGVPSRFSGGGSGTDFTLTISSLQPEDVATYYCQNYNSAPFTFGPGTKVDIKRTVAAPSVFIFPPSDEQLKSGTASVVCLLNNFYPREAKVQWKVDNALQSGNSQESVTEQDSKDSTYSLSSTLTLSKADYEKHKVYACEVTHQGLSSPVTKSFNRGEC
PSMA Fab (SEQ ID NOs: 19, 20), sequence (as listed by the source): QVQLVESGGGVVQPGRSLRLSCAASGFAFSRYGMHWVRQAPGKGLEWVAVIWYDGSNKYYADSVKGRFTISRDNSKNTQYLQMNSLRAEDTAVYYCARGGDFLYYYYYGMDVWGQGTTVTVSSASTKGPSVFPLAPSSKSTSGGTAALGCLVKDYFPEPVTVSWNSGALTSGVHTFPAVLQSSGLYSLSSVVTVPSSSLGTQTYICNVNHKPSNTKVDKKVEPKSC
PSMA Fab (SEQ ID NOs: 19, 20) binding to the PSMA antigen, sequence (Q04609 whole entry partner): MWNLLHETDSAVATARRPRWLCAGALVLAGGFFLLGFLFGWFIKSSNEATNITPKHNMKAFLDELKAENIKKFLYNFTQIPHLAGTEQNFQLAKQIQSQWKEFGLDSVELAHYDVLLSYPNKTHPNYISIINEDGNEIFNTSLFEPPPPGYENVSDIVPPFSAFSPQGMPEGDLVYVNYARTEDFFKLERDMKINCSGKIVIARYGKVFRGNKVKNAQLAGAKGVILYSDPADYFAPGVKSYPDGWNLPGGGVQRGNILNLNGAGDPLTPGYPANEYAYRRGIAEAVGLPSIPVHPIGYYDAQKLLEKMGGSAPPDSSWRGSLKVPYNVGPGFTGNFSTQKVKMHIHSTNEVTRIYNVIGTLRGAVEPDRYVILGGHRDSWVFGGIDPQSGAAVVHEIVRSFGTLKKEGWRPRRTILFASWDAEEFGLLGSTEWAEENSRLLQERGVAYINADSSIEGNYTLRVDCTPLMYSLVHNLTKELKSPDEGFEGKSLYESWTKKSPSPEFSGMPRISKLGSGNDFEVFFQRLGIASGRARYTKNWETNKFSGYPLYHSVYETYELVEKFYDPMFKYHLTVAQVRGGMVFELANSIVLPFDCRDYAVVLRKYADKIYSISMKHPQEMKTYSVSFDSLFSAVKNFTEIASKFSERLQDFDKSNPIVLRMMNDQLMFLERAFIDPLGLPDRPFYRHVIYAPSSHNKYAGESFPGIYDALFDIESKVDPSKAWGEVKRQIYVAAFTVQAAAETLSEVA
anti-CD28 scFv (disulfide) (SEQ ID NO: 10), sequence (as listed by the source): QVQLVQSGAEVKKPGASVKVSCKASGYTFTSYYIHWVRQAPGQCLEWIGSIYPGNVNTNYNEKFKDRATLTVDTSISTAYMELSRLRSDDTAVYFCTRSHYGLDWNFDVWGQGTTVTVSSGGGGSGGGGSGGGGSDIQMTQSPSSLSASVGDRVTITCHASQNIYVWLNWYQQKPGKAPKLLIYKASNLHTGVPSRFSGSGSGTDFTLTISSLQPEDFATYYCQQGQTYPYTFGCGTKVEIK

Substance: FVPCIPSHWLCPIW [Peptide-191]
- IC50 [1, 5]: > 100000 nM

Substance: GCQYPWAFDAMSCP [Peptide-80]
- EC50 ([2]; Table 24): > 1000 nM
- EC50 [3]: > 1000 nM

Substance: SIPCIPRDWLCPIK [Peptide-163]
- EC50 ([4]; Table 37): > 1000 nM

Substance: MEYCSFHRFTCVLW [Peptide-193]
- IC50 [1, 5]: > 100000 nM

Substance: Peptide-2687 (LMAWCTPRWMCAAE)
- Mutation Status [1, 6]: ST

Substance: TCAAGAAWPWPQCL [Peptide-140]
- EC50 ([2]; Table 25): 2.6 nM

Substance: LMKWCTPRAMCAAE [Peptide-248]
- Mutation Status [1, 6]: IT
- IC50 [1, 7]: > 100000 nM

Substance: YCAGMSTIQLWLKC [Peptide-94]
- EC50 ([2]; Table 24): > 1000 nM
- EC50 [3]: > 1000 nM

Substance: TCSAGATWAWPLCF [Peptide-152]
- EC50 ([2]; Table 25): 15.6 nM

Substance: VEVKCFPLWFCVGL [Peptide-275]
- IC50 ([1]; Table 42, SAR guided optimization phage library of peptide-180): > 100000 nM

Substance: LCQWYPKFHWMDCD [Peptide-210]
- IC50 [1, 5]: > 100000 nM

Substance: TCSAGATYEWPRCL [Peptide-149]
- EC50 ([2]; Table 25): 12.8 nM

Substance: LMKWCTARWMCAAE [Peptide-246]
- Mutation Status [1, 6]: IT
- IC50 [1, 7]: > 100000 nM

Substance: SCGWLRGEEFGWWC [Peptide-190]
- EC50 ([4]; Table 38): > 3000 nM
- IC50 [1, 8]: > 100000 nM

Substance: FVCWTFGEHIKVCR [Peptide-186]
- EC50 ([4]; Table 38): > 3000 nM
- IC50 [1, 8]: > 100000 nM

Substance: LMKWCTPRWACAAE [Peptide-249]
- Mutation Status [1, 6]: IT
- IC50 [1, 7]: > 100000 nM

Substance: AAVLCQPNWMCAGF [Peptide-251]
- Mutation Status [1, 9]: T

Substance: TCSAGAAYPWPLCL [Peptide-145]
- EC50 ([2]; Table 25): 4.4 nM

Substance: TCAAGATYLWPTCL [Peptide-153]
- EC50 ([2]; Table 25): 20.5 nM

Substance: TCSAGASYPWPLCL [Peptide-139]
- EC50 ([2]; Table 25): 5.3 nM

Substance: YWYCSPSIVRCVLV [Peptide-89]
- EC50 ([2]; Table 24): > 1000 nM
- EC50 [3]: > 1000 nM

Substance: MEYCSFHRFTCVLW [Peptide-174]
- EC50 ([4]; Table 37): > 1000 nM

Substance: WCWYYREWVPMTCP [Peptide-88]
- EC50 ([2]; Table 24): > 1000 nM
- EC50 [3]: > 1000 nM

Substance: IAVLCAPNWMCAGF [Peptide-254]
- Mutation Status [1, 9]: T

Substance: TCLRFADLAIIHCD [Peptide-160]
- EC50 ([4]; Table 37): > 1000 nM

Substance: FCNWVDGDVWVVCK [Peptide-172]
- EC50 ([4]; Table 37): > 1000 nM

Substance: IAVLCQPAWMCAGF [Peptide-256]
- Mutation Status [1, 9]: T

Substance: ECHWSMWAVGHACF [Peptide-83]
- EC50 ([2]; Table 24): > 1000 nM
- EC50 [3]: > 1000 nM

Substance: TCSAGATWPWPICL [Peptide-137]
- EC50 ([2]; Table 25): 2.1 nM

Substance: PELRCVPFWMCSFN [Peptide-181]
- EC50 ([4]; Table 38): 3 nM

Substance: AMKWCTPRWMCAAE [Peptide-241]
- Mutation Status [1, 6]: T

Substance: YECHQGLFHRWCVN [Peptide-158]
- Binding EC50 ([4]; Table 37): high background

Substance: YCEGHLPEYLGKCL [Peptide-125]
- EC50 ([2]; Table 26): 12.1 nM

Substance: YCEGHEGIYFWKCL [Peptide-119]
- EC50 ([2]; Table 26): 128 nM

Substance: IECAYMTDQRFWCW [Peptide-188]
- EC50 ([4]; Table 38): > 3000 nM

Substance: YCEGHAPEYIWKCL [Peptide-123]
- EC50 ([2]; Table 26): 8.1 nM

Substance: HCEFHDYQSCDVLY [Peptide-211]
- IC50 [1, 5]: > 100000 nM

Substance: LCEWWTSHVDAWCA [Peptide-213]
- IC50 [1, 5]: > 100000 nM

Substance: NCFFAADIHWNFCT [Peptide-169]
- EC50 ([4]; Table 37): > 1000 nM

Substance: SIPCIPRDWLCPIK [Peptide-182]
- EC50 ([4]; Table 38): > 3000 nM
- IC50 [1, 8]: > 100000 nM

Substance: PDCVYHSFWGYSCR [Peptide-178]
- EC50 ([4]; Table 37): > 1000 nM

Substance: NCWWHDFRAGHVVC [Peptide-161]
- EC50 ([4]; Table 37): > 1000 nM

Substance: HCLWHESSGRVLCF [Peptide-192]
- IC50 [1, 5]: > 100000 nM

Substance: SCGWLRGEEFGWWC [Peptide-177]
- EC50 ([4]; Table 37): > 1000 nM

Substance: LMKWCTPRWMC [Peptide-250]
- Mutation Status [1, 6]: T
- IC50 [1, 7]: 6640 nM

Substance: IRCVGEGHDLVCIF [Peptide-184]
- EC50 ([4]; Table 38): > 3000 nM
- IC50 [1, 8]: > 100000 nM

Substance: FCGWMDGDVFWFCG [Peptide-171]
- EC50 ([4]; Table 37): > 1000 nM

Substance: YWSCFQIPFTCFYF [Peptide-75]
- EC50 ([2]; Table 24): > 1000 nM
- EC50 [3]: > 1000 nM

Substance: TCSAGAAYSWPACF [Peptide-146]
- EC50 ([2]; Table 25): 24.3 nM

Substance: YCEGHSQEYLWKCL [Peptide-128]
- EC50 ([2]; Table 26): 59.4 nM

Substance: LCAAGATYPWPLCL [Peptide-144]
- EC50 ([2]; Table 25): 5.6 nM

Substance: WCWVQDDRRHVVCG [Peptide-201]
- IC50 [1, 5]: > 100000 nM

Substance: FGHCAGSPVFCAYW [Peptide-168]
- EC50 ([4]; Table 37): > 1000 nM

Substance: ACDTYFAGMINECF [Peptide-79]
- EC50 ([2]; Table 24): 97 nM
- EC50 [3]: 73.2 nM

Substance: HLFCWEGSDRCAWV [Peptide-165]
- EC50 ([4]; Table 37): > 1000 nM
